In patent US4360525A, “Dibenzazepine derivatives, pharmaceutical compositions containing them, and methods of use” (Sandoz Ltd., priority 1979, dated 1982):

Assays:
[1] = tested on: spontaneous motor activity; assay: inhibition of spontaneous motor activity in mice (Caviezel and Baillod); format: in vivo; details: Mus musculus, po
Procedure: In particular, the compounds of the invention are useful as neuroleptic agents in the treatment of e.g. psychotic disturbances such as schizophrenia, as indicated in standard tests, e.g. by an inhibition of spontaneous motor activity in mice on p.o. administration of from about 1 to about 50 mg/kg animal body weight of the compounds in accordance with the principles of Caviezel and Baillod (Pharm. Acta Helv. (1958), 33, 465-484).

sleep/wake cycle = sleep/wake cycle in the rat (H. Kleinlogel); format: in vivo; details: 10 mg/kg p.o.
Procedure: Additionally, the compounds on administration to mice of from about 0.1 to about 10 mg/kg i.p. inhibit the hypermotility induced by 4,α-dimethyl-m-tyramine (H 77/77) in a test carried out according to the principles of J. Buus Lassen, Psychopharmacologia 37, 331-340 (1974). The compounds also increase the sleep phase II in the sleep/wake cycle in the rat carried out according to the principles of H. Kleinlogel et al, European J. Pharmacol. 33, 159-163, 1975, on administration of from […]. Results obtained are e.g. as follows:
Additionally the compounds of the invention are useful as sleep-inducing, sleep-promoting and sleep-prolonging agents, as indicated in standard tests. For example, in one test according to the principles of H. Kleinlogel, European J. Pharmacol. 33, 159-163 (1975) an increase in the sleep phase II and a decrease of the wake phase is observed after administration to rats of from 0.5 to 80 mg/kg p.o. animal body weight of the compounds.

| SMILES | ED50 [1] | Sleep phase II % of control (sleep/wake cycle) |
| --- | --- | --- |
| CSc1ccc2c(c1)N(CCC1CCCCN1C)c1ccccc1S2 (stereo not shown) [Thioridazine] | 26 mg/kg |  |
| CN1CCC(N2Cc3cc(Cl)ccc3Sc3ccccc32)CC1 [Example 1, 2-Chloro-10-(1-methyl-piperidin-4-yl)-10,11-dihydro-dibenzo[b,f][1,4]thiazepine] | 26 mg/kg | 131 % of control |
| CN1CCN(C2=Nc3cc(Cl)ccc3Nc3ccccc32)CC1 [Clozapine] |  | 144 % of control |
